Experimental data as given in patent US12540120B2, “Herbicidal compounds” (SYNGENTA CROP PROTECTION AG, priority 2019, dated 2026).

Assays:
Assay type in all cases: in vivo
Solanum nigrum (SOLNI) [1] = test: B5 Pre-Emergence Efficacy—Test 2; details: 250 g/ha, evaluated after 13 days
Summary of the method: (§1)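 Damage rated 13 days after treatment on a 1–5 scale (1=0-19%, 5=80-100%). Compounds applied at 250 g/ha as an acetone/water (50:50) spray containing 0.5% Tween 20, one day after sowing in soil, with glasshouse conditions of 24/16° C, 14 h light and 65% humidity.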

[2] = system: Amaranthus retoflexus (AMARE); test: B5 Pre-Emergence Efficacy—Test 2; details: 250 g/ha, evaluated after 13 days
Summary of the method: as §1

Lolium perenne (LOLPE) [3] = test: B5 Pre-Emergence Efficacy—Test 2; set-up: key: 5-point scale: 5=80-100%, 4=60-79%, 3=40-59%, 2=20-39%, 1=0-19% damage; details: 250 g/ha, evaluated after 13 days
Summary of the method: as §1

[4] = system: Ipomoea hederacea (IPOHE); test: B5 Pre-Emergence Efficacy—Test 2; set-up: key: 5-point scale: 5=80-100%, 4=60-79%, 3=40-59%, 2=20-39%, 1=0-19% damage; details: 250 g/ha, evaluated after 13 days
Summary of the method: as §1

Setaria faberi (SETFA) [5] = test: B5 Pre-Emergence Efficacy—Test 2; set-up: key: 5-point scale: 5=80-100%, 4=60-79%, 3=40-59%, 2=20-39%, 1=0-19% damage; details: 250 g/ha, evaluated after 13 days
Summary of the method: as §1

[6] = system: Echinochloa crus-galli (ECHCG); test: B5 Pre-Emergence Efficacy—Test 2; set-up: key: 5-point scale: 5=80-100%, 4=60-79%, 3=40-59%, 2=20-39%, 1=0-19% damage; details: 250 g/ha, evaluated after 13 days
Summary of the method: as §1

Lolium perenne (LOLPE) [7] = test: B2 Post-Emergence Efficacy—Test 2; details: post-emergence application, 250 g/ha, evaluated after 13 days (Test 2)
Summary of the method: (§2)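 Damage rated 13 days after treatment on a 1–5 scale (1=0-19%, 5=80-100%). Compounds were applied at 250 g/ha in acetone/water (50:50) with 0.5% Tween 20 to 8-day-old seedlings, grown under glasshouse conditions of 24/16 °C day/night, 14 h light, 65% humidity.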

Solanum nigrum (SOLNI) [8] = test: B2 Post-Emergence Efficacy—Test 2; details: post-emergence application, 250 g/ha, evaluated after 13 days (Test 2)
Summary of the method: as §2

[9] = system: Ipomoea hederacea (IPOHE); test: B2 Post-Emergence Efficacy—Test 2; details: post-emergence application, 250 g/ha, evaluated after 13 days (Test 2)
Summary of the method: as §2

Setaria faberi (SETFA) [10] = test: B2 Post-Emergence Efficacy—Test 2; details: post-emergence application, 250 g/ha, evaluated after 13 days (Test 2)
Summary of the method: as §2

[11] = system: Echinochloa crus-galli (ECHCG); test: B2 Post-Emergence Efficacy—Test 2; details: post-emergence application, 250 g/ha, evaluated after 13 days (Test 2)
Summary of the method: as §2

[12] = system: Amaranthus retoflexus (AMARE); test: B2 Post-Emergence Efficacy—Test 2; details: post-emergence application, 250 g/ha, evaluated after 13 days (Test 2)
Summary of the method: as §2

Cc1nn(C)c(=O)c(-c2c(F)ccc(Cl)c2CCc2ccc(C#N)cc2)c1OC(=O)C(C)C [Compound A-3.036, [5-[3-Chloro-2-[2-(4-cyanophenyl)ethyl]-6-fluoro-phenyl]-1,3-dimethyl-6-oxo-pyridazin-4-yl] 2-methylpropanoate]
5 (5=80-100%): Control of weed species after pre-emergence application, SOLNI (percentage damage, five point scale) (Solanum nigrum (SOLNI) [1]) | Control of weed species after pre-emergence application, AMARE (percentage damage, five point scale) [2] | Control of weed species after pre-emergence application, LOLPE (percentage damage, five point scale) (Lolium perenne (LOLPE) [3]) | Control of weed species after pre-emergence application, IPOHE (percentage damage, five point scale) [4] | Control of weed species after pre-emergence application, SETFA (percentage damage, five point scale) (Setaria faberi (SETFA) [5]) | Control of weed species after pre-emergence application, ECHCG (percentage damage, five point scale) [6] | percentage damage caused to the plant, five point scale, SOLNI (Solanum nigrum (SOLNI) [8]) | percentage damage caused to the plant, five point scale, IPOHE [9] | percentage damage caused to the plant, five point scale, AMARE [12]
4 (4=60-79%): percentage damage caused to the plant, five point scale, LOLPE (Lolium perenne (LOLPE) [7]) | percentage damage caused to the plant, five point scale, SETFA (Setaria faberi (SETFA) [10]) | percentage damage caused to the plant, five point scale, ECHCG [11]

Cc1nn(C)c(=O)c(-c2c(F)ccc(Cl)c2CCc2ccc(OC(C)(C)C)cc2)c1OC(=O)C(C)C [Compound A-3.035]
4 (4=60-79%): Control of weed species after pre-emergence application, AMARE (percentage damage, five point scale) [2] | Control of weed species after pre-emergence application, ECHCG (percentage damage, five point scale) [6] | percentage damage caused to the plant, five point scale, ECHCG [11]
5 (5=80-100%): Control of weed species after pre-emergence application, SOLNI (percentage damage, five point scale) (Solanum nigrum (SOLNI) [1]) | Control of weed species after pre-emergence application, LOLPE (percentage damage, five point scale) (Lolium perenne (LOLPE) [3]) | Control of weed species after pre-emergence application, IPOHE (percentage damage, five point scale) [4] | Control of weed species after pre-emergence application, SETFA (percentage damage, five point scale) (Setaria faberi (SETFA) [5]) | percentage damage caused to the plant, five point scale, LOLPE (Lolium perenne (LOLPE) [7]) | percentage damage caused to the plant, five point scale, SOLNI (Solanum nigrum (SOLNI) [8]) | percentage damage caused to the plant, five point scale, IPOHE [9] | percentage damage caused to the plant, five point scale, SETFA (Setaria faberi (SETFA) [10]) | percentage damage caused to the plant, five point scale, AMARE [12]

CSc1ccc(CCc2c(Cl)ccc(F)c2-c2c(O)c(C)nn(C)c2=O)cc1 [Compound A-1.039, 4-[3-chloro-6-fluoro-2-[2-(4-methylsulfanylphenyl)ethyl]-phenyl]-5-hydroxy-2,6-dimethyl-pyridazin-3-one]
5 (5=80-100%): Control of weed species after pre-emergence application, SOLNI (percentage damage, five point scale) (Solanum nigrum (SOLNI) [1]) | Control of weed species after pre-emergence application, AMARE (percentage damage, five point scale) [2] | Control of weed species after pre-emergence application, SETFA (percentage damage, five point scale) (Setaria faberi (SETFA) [5]) | Control of weed species after pre-emergence application, ECHCG (percentage damage, five point scale) [6] | percentage damage caused to the plant, five point scale, LOLPE (Lolium perenne (LOLPE) [7]) | percentage damage caused to the plant, five point scale, SOLNI (Solanum nigrum (SOLNI) [8]) | percentage damage caused to the plant, five point scale, IPOHE [9] | percentage damage caused to the plant, five point scale, SETFA (Setaria faberi (SETFA) [10]) | percentage damage caused to the plant, five point scale, ECHCG [11] | percentage damage caused to the plant, five point scale, AMARE [12]
4 (4=60-79%): Control of weed species after pre-emergence application, LOLPE (percentage damage, five point scale) (Lolium perenne (LOLPE) [3])
3 (3=40-59%): Control of weed species after pre-emergence application, IPOHE (percentage damage, five point scale) [4]
